Results reported in US11807685B2, “Anti-CD47 antibody and uses thereof” (THE UAB RESEARCH FOUNDATION, priority 2021, dated 2023).

Experiments:
MDA-MB-468 cells [1] = assay: In vitro cytotoxicity assay (CellTiter-Glo); type: cell-based, human; details: for cell viability: 3-day assay
Protocol: (§1) The 96-well plates were seeded with MDA-MB-231 and MDA-MB-468 cells at VCD of 5×10^5 cells/mL in 100 μL of DMEM/F12 complete medium with triplication. Then 100 μL of cell growth medium containing ADC or free drug was added to reach final concentrations of 0-200 nM and incubated in CO2 incubator for 72 hrs. The cytotoxicity of ADC or free drug was measured with CellTiter-Glo Luminescent Cell Viability Assay (Promega, Madison, […]) and reported as the relative viability using untreated cells as control. The IC50 value was calculated using ED50V10 Excel add-in.

MDA-MB-231 cells [2] = assay: In vitro cytotoxicity assay (CellTiter-Glo); type: cell-based, human; details: for cell viability: 3-day assay
Protocol: as §1

CD47 = assay: Western blotting of CD47 in GC treated MDA-MB-231 cells; type: cell-based, human; details: 10 nM for 3 weeks
Protocol: The non-reducing SDS-PAGE was run by loading 2 μg of mAb or ADC to Bolt™ 4 to 12%, Bis-Tris Mini Protein Gel (1.0 mm) to validate the purity and integrality of the produced anti-CD47 mAb and ADC. In Western blotting analysis, 30 μg of total cell lysis protein was loaded to gel and electro-transferred to PVDF membrane using PowerEase™ Touch 350 W Power Supply (Fisher). After blocking, the blotted membrane was probed using primary rabbit anti-mouse antibody and HRP-conjugated secondary anti-rabbit antibody (Abcam, Cambridge, UK). The blotted membrane was treated with Luminata Forte Western HRP substrate (Millipore, Boston, MA). The SDS-PAGE and Western blots were imaged with MyECL imager and quantified using ImageJ software.
The surface expression of CD47 in TNBC cell lines was analyzed using mass spectrometry (MS, Thermo Orbitrap Velos Pro) at the University of Alabama at Birmingham (UAB) MS and proteomics core facility. […] Furthermore, to confirm the CD47 upregulation by chemotherapy, we treated MDA-MB-231 cells with 10 nM GC for 3 weeks.

[3] = tested on: MDA-MB-231-FLuc xenograft; assay: IVIS imaging of in vivo TNBC targeting; design: species or system mouse
Source text: (§2) Human TNBC xenograft mouse model was generated by subcutaneously (s.c.) injecting 3×10^6 of MDA-MB-231-FLuc cells into the 6-week-old NSG (NOD scid gamma) female mice (Jackson Labs, Bar Harbor, ME). This immunocompromised model was used to evaluate the tumor targeting of our mAb and anti-TNBC efficacy of the constructed ADC. The immunocompetent mouse model was generated by injecting 1×10^6 of mouse TNBC 4T1-FLuc cells into the BALB/cJ female mice, which was used to analyze the tumoral immunity. Mice developed tumors within 2 weeks post cells injection.
When TNBC tumor volume reached approximately 100 mm^3, 50 μg of Cyanine 5.5 (Cy5.5, Lumiprobe, Hunt Valley, MD) labelled anti-CD47 mAb or 1.5 nmole Cy5.5 (control, similar amount as labelled Cy5.5 in mAb) was intravenously (i.v.) administrated via tail vein for TNBC-targeting analysis. Mice were imaged at 24 hrs post mAb injection under IVIS Lumina Series III (PerkinElmer, Waltham, MA) with wavelength of 660 nm/710 nm (excitation/emission) and exposure time of 10 seconds. Inhalation anesthesia was induced by delivering 3.5-4.5% isoflurane in oxygen to mice via respiratory system (nose cone), then maintained with a concentration of 1-2% during imaging procedure.

[4] = Toxicity in the efficacy study (body weight, H&E staining of organs); type: in vivo, mouse; details: 8 and 24 mg/kg ADC, 8 mg/kg mAb, PBS; Q4Dx4
Protocol: […] […] Tumor volume was measured using an electronic caliper and calculated as “width×width×length/2” in mm. Body weight was measured every other day. The in vivo treatment study was ended after 21-day treatment which was determined based on our previous ADC treatment animal study (Si, Y.; et al. Eng Life Sci 2021, 21:37-44; Ou, J.; et al. PLoS One 2018, 13:e0206246; Xu, N.; et al. Biochemical Engineering Journal 2019, 145:177-185). At the end of the experiment, mice were euthanized and the TNBC tumors were collected to measure the wet weight.
The IHC and H&E staining were performed. In IHC staining, the paraffin-embedded slides were immersed in xylene followed by 3% H2O2 in PBS, and blocked with 3% normal goat serum. The rabbit anti-mouse CD11b mAb (Cell Signaling, Danvers, MA) and HRP-conjugated goat anti-rabbit IgG mAb were used to stain the macrophage in tumor tissue. After color development with DAB chromogen, the slides were counterstained with hematoxylin and dehydrated in absolute ethanol. In H&E staining, the embedded normal organ slides were dewaxed, hydrated with 100%-0% ETOH, immersed in hematoxylin solution, and rinsed with tap water and eosin. After equilibration in ethanol, the stained slides were dipped in Xylene and mounted with cytoseal Xyl.

lymph node immune cells = assay: Flow cytometry analysis of immune cells in lymph nodes, 4T1 xenograft BALB/cJ model; type: in vivo, mouse; details: 8 mg/kg, BALB/cJ 4T1 xenograft
Protocol: (§3) The flow cytometry was conducted to analyze anti-CD47 mAb's binding rate to TNBC cells and quantify the immune cells using a BD LSRII flow cytometer (BD Biosciences, San Jose, CA). In surface binding analysis, the produced CD47 mAb was labelled with an Alexa Fluor™ 647 labelling kit (Life Technologies, part of Fisher) and used to stain MDA-MB-468, MDA-MB-231, 4T1, and 184B5 cells with 5 μg of mAb-AF647 per million of cells at room temperature for 30 mins (Ou, J.; et al. PLOS ONE 2018; Si, Y.; et al. Pharmaceutics 2020, 12:1079-1090; Ou, J.; et al. J Biol Eng 2019, 13:34). The harvested lymph nodes were dissociated with Tissue Dissociation/Single Cell Isolation Kit (101 Bio LLC, Sunnyvale, CA) following manufacturing procedure, and stained with Cy5 anti-CD69 antibody, APC anti-CD11c antibody, or PE/Cy7 anti-CD4 antibody (BioLegend, San Diego, CA) for flow cytometry analysis.
as §2
The general immune response to anti-CD47 mAb was also tested using whole blood analysis and flow cytometry analysis of lymph nodes in the 4T1 xenograft BALB/cJ model (n=4). The mice carrying 50 mm^3 xenograft were treated with 8 mg/kg anti-CD47 mAb. After two weeks, blood was collected through cardiac puncture. […] The lymph nodes were also harvested and dissociated for flow cytometry analysis of fresh cells. […] In the future, a full investigation of immune function in tumor microenvironment is needed in order to delineate the possible anti-TNBC immunity of this mAb.

MDA-MB-468 cells [5] = assay: Flow cytometry surface binding; design: species or system human; details: MDA-MB-468, mAb-AF647, flow cytometry
Protocol: as §3

MDA-MB-231 cells [6] = assay: Flow cytometry surface binding; design: species or system human; details: MDA-MB-231, mAb-AF647, flow cytometry
Protocol: as §3

MDA-MB-468 cells [7] = assay: Live-cell confocal imaging of internalization; type: cell-based, human; details: AF647 labelled mAb
Source text: Confocal microscopy imaging was collected to validate the targeting and internalization of anti-CD47 mAb in TNBC cells following our reported protocol (Si, Y.; et al. Cancer Gene Therapy. Cancer Gene Therapy 2020; Si, Y.; et al. Eng Life Sci 2021, 21:37-44; Ou, J.; et al. PLOS ONE 2018; Si, Y.; et al. Pharmaceutics 2020, 12:1079-1090; Si, Y.; et al. Biotechnol J 2019). Briefly, the MDA-MB-468 cells were stained with BacMam GFP Transduction Control, which expresses eGFP protein in cytoplasm, NucBlue Live ReadyProbes to stain nucleus, and AF647 labelled anti-CD47 mAb to target TNBC cells via surface receptor. The live-cell images were collected using a Nikon A1R-HD25 confocal microscope with a high-speed resonance scanner (Nikon USA, Melville, NY).

[8] = tested on: MDA-MB-231-FLuc xenograft; assay: In vivo anti-TNBC efficacy study; design: species or system mouse; unit not given here; details: 8 mg/kg i.v. Q4Dx4, terminal tumor; no significant difference to PBS group
Source text: as §2
The TNBC MDA-MB-231-FLuc xenograft mice were treated with 16 mg/kg-BW of GC by intraperitoneal (IP) injection when tumor volume reached ˜50 mm^3. […] Tumor volume was measured using an electronic caliper and calculated as “width×width×length/2” in mm. Body weight was measured every other day. The in vivo treatment study was ended after 21-day treatment which was determined based on our previous ADC treatment animal study (Si, Y.; et al. Eng Life Sci 2021, 21:37-44; Ou, J.; et al. PLoS One 2018, 13:e0206246; Xu, N.; et al. Biochemical Engineering Journal 2019, 145:177-185). At the end of the experiment, mice were euthanized and the TNBC tumors were collected to measure the wet weight.

4T1 cells = assay: Flow cytometry surface binding; details: mouse TNBC 4T1, mAb-AF647, flow cytometry
Protocol: as §3

[9] = tested on: normal breast 184B5 cells; assay: Flow cytometry surface binding; details: normal 184B5 cells, mAb-AF647, flow cytometry
Protocol: as §3

[10] = Whole blood analysis (HemaVet 950FS) in 4T1 xenograft BALB/cJ model; type: in vivo, mouse; details: 8 mg/kg, after two weeks, BALB/cJ 4T1 xenograft
Source text: The blood samples were extracted by cardiac puncture for whole blood analysis using HemaVet 950FS (Drew Scientific, Miami Lakes, FL). The leukocytes (white blood cell, neutrophil, lymphocyte, monocyte, eosnophils), erythrocytes (red blood cell, hemoglobin, mean corpuscular hemoglobin), and thrombocytes (platelet) were titrated to analyze the general peripheral immune response.
as §2
The general immune response to anti-CD47 mAb was also tested using whole blood analysis and flow cytometry analysis of lymph nodes in the 4T1 xenograft BALB/cJ model (n=4). The mice carrying 50 mm^3 xenograft were treated with 8 mg/kg anti-CD47 mAb. After two weeks, blood was collected through cardiac puncture. […] The lymph nodes were also harvested and dissociated for flow cytometry analysis of fresh cells. […]

For `COc1cc2cc(c1Cl)N(C)C(=O)C[C@H](OC(=O)[C@H](C)N(C)C(=O)CCS)[C@]1(C)O[C@H]1[C@H](C)[C@@H]1C[C@@](O)(NC(=O)O1)[C@H](OC)/C=C/C=C(\C)C2` [DM1, mertansine], the cell viability (MDA-MB-468 cells [1]; MDA-MB-468, 25 nM) was 56%, the cell viability (MDA-MB-468 cells [1]; MDA-MB-468, 50 nM) was 37% and the cell viability (MDA-MB-468 cells [1]; MDA-MB-468, 100 nM) was 32%. The cell viability (MDA-MB-468 cells [1]; MDA-MB-468, 200 nM) was 34%, the IC50 (MDA-MB-468 cells [1]; MDA-MB-468, 72 hrs) was 21 nM and the cell viability (MDA-MB-231 cells [2]; MDA-MB-231, 25 nM) was 94%. For the same molecule, the cell viability (MDA-MB-231 cells [2]; MDA-MB-231, 50 nM) was 72%, the cell viability (MDA-MB-231 cells [2]; MDA-MB-231, 100 nM) was 53% and the cell viability (MDA-MB-231 cells [2]; MDA-MB-231, 200 nM) was 54%. For the same molecule, the IC50 (MDA-MB-231 cells [2]; MDA-MB-231, 72 hrs) was 47 nM.

In the case of `Nc1ccn([C@@H]2O[C@H](CO)[C@@H](O)C2(F)F)c(=O)n1` [GC, gemcitabine], the CD47 expression (CD47) is reported as “increased”.

With Cyanine 5.5 [Cy5.5] the “distribution in major organs (brain, heart, lung, spleen, kidney, liver)” value ([3]; 24 hrs post i.v. injection, IVIS) was “distributed in multiple locations such as brain, liver and kidney”.

B1: anti-CD47 mAb: anti-CD47 mAb (IgG2b/kappa) targeting the extracellular domain (Gln19-Glu141) of CD47; heavy chain SEQ ID NO:1, light chain SEQ ID NO:2 (antibody)
heavy: MLLGLKWVFFVVFYQGVHCEVQLVESGGGLVQPKGSLKLSCAASGFTFNTYAMNWVRQAPGKGLEWIARIRSKSNNYATYYADSMKDRFTISRDDSQSMLYLQMNNLKTEDTAMYYCVRPAQGAMDYWGHGTSVTVSSSKTTPPSVYPLAPGCGDTTGSSVTLGCLVKGYFPESVTVTWNSGSLSSSVHTFPALLQSGLYTMSSSVTVPSSTWPSQTVTCSVAHPASSTTVDKKLEPSGPISTINPCPPCKECHKCPAPNLEGGPSVFIFPPNIKDVLMISLTPKVTCVVVDVSEDDPDVQISWFVNNVEVHTAQTQTHREDYNSTIRVVSTLPIQHQDWMSGKEFKCKVNNKDLPSPIERTISKIKGLVRAPQVYILPPPAEQLSRKDVSLTCLVVGFNPGDISVEWTSNGHTEENYKDTAPVLDSDGSYFIYSKLNMKTSKWEKTDSFSCNVRHEGLKNYYLKKSFSRTPGK
light: MVFTPQILGLMLFWISASRGDIVLTQSPATLSVTPGDSVSLSCRASQRISNNLHWYQQKSHESPRLLIKYSSQSISGIPSRFSGSGSGTDFTLSINSVETEDFGMYFCQQSNAWPYTFGGGTKLEIRRADAAPTVSIFPPSSEQLTSGGASVVCFLNNFYPKDINVKWKIDGSERQNGVLNSWTDQDSKDSTYSMSSTLTLTKDEYERHNSYTCEATHKTSTSPIVKSFNRNEC
For B1, the “time to targeting and accumulation in TNBC tumor post i.v. injection” value ([3]; mouse, in vivo, iv) was ≤ 24 h, the “overall body weight change among the four groups” value [4] was “no obvious difference” and the “CD11c+ DC cells in lymph nodes” value (lymph node immune cells; PBS control 5.44%) was 8.49%. For the same molecule, the “CD69+ NK cells in lymph nodes” value (lymph node immune cells; PBS control 6.55%) was 10.3%, the “CD4+ T cells in lymph nodes” value (lymph node immune cells; PBS control 63.8%) was 68.3% and the surface binding (MDA-MB-468 cells [5]) was 98.9%. For the same molecule, the surface binding (MDA-MB-231 cells [6]) was 97.3%, the “time to internalization and localization in cytoplasm after mixing” value (MDA-MB-468 cells [7]) was ≤ 60 min and the tumor weight [8] was 307±76. The surface binding (4T1 cells) was 90.5%, the surface binding [9] was 4.39% and the “leukocytes, erythrocytes and thrombocytes counts vs PBS control group” value [10] was “no obvious difference”.
